Experimental findings from patent publication US12523663B2, “Use of CD9 as a biomarker and as a biotarget in glomerulonephritis or glomerulosclerosis” (INSERM (INSTITUT NATIONAL DE LA SANTÉ ET DE LA RECHERCHE …, priority 2019, dated 2026) are described below.

What all share (type): cell-based
The test system of test [1] is PEC. Put plainly: Proliferation assay (Ki67 staining, flow cytometry). The settings on record: PDGF-BB stimulation. Here is the method: To assess cell proliferation, we used the nuclear antigen Ki67 staining. After overnight starvation in ECBM+1% FBS, cells were treated 24 hours with PDGF-BB (10 ng/mL) or HBEGF (20 ng/mL) or corresponding controls. Cells were then trypsinized and washed in cold PBS. Supernatants were kept and included in analysis. After centrifugation, cells were permeabilized with 1 mL of ice-cold ethanol for 2 h at −20° C. Following two washes with FACS buffer (HBSS, 2% FBS and 10 mM HEPES), cells were stained for 30 min at room temperature in the dark with phycoerythrin (PE)-conjugated anti-human Ki67 mAb (clone B56) (BD Pharmingen) and washed. Samples were analyzed on a BD LSRII flow cytometer (BD Bioscience). An isotype control staining with PE mouse IgG1 was performed. Data were analyzed using FlowJo software (FlowJo, LLC).
(In general: In flow cytometry, cells or beads pass a laser one at a time.)

For test [2], the system named is PEC. Put plainly: Cell migration in IBIDI chambers (scratch assay). The settings on record: scratch assays, growth factor stimulation. Here is the method: Unoriented migration assay was performed using IBIDI chambers (Culture-Insert 2 Well in μ-Dish 35 mm, high ibiTreat, n° 81176). After confluence was obtained, PECs were grown in ECBM without supplements with FBS 1% overnight. The insert was then removed creating a gap of 500 μm between cells. A first round of photographs was taken (HO), shortly after cells were stimulated with either ECBM without supplements with FBS 1% (control), or with HB-EGF 10 ng/mL, or with PDGF-BB 10 ng/mL. Photographs were taken every 30 min for 12 h. Areas of migration were measured by automatic quantification on NIS-Elements AR software.

For test [3], the system named is PDGFRβ. Put plainly: Western blot of PDGFRβ phosphorylation in PEC. As to conditions: PEC stimulated with PDGF-BB. As for the experimental part: PEC lysates were prepared with RIPA extraction buffer containing phosphatase inhibitors and protease inhibitors (Roche). Equal amounts of proteins were loaded onto sodium dodecyl sulfate-polyacrylamide electrophoresis gels for separation and transferred onto poly(vinylidene difluoride) membranes. The membranes were blocked with milk and probed with different antibodies: rat anti-CD9 (BD Pharminogen, 553758, 1:1000), rabbit anti-phospho-PDGF receptor-β Y1009 (Cell Signaling Technology, 4549; 1:1000), rabbit anti-PDGFRB (Cell Signaling, 3169; 1:1000), rabbit anti-integrin […] (Millipore, 04-1109, 1:1000), rabbit anti-CASP3 (Cell Signaling Technology, 9662; 1:1000), rabbit anti-phospho EGFR Y1068 (Cell Signaling Technology, 2234; 1:1000), rabbit anti EGFR (Cell Signaling Technology, 2232; 1:1000), rabbit anti-phospho-FAK Y397 (Cell Signaling 3283, 1:1000), rabbit anti-FAK (Millipore, 06-543,1:1000). Membranes were then probed with horseradish peroxidase-conjugated secondary antibodies (Cell Signaling Technology, 7074 and 7076; 1:2000; Jackson Immunoresearch, 706-036-148; 1:1000) and bands were visualized by enhanced chemiluminescence (Clarity Western ECL substrate; Bio-Rad, 170-5061). A LAS-4000 imaging system (Fuji, LAS4000, Burlington, N.J., USA) was used to reveal bands and densitometric analysis was used for quantification.

“PDGF-BB: growth factor used to stimulate PECs”: in test [1], the “PEC proliferation (number of KI67+ cells)” value is recorded as “induced PEC proliferation”. For the same molecule, the PEC migration entry in test [2] is on record as “induced PEC migration”. Further, the PDGFRβ phosphorylation entry in test [3] is “induced a rapid and transient PDGFRβ phosphorylation”.

B1: HB-EGF: growth factor used to stimulate PECs (protein, UniProt Q99075 63-148, looked up)
Heparin-binding EGF-like …: DLQEADLDLLRVTLSSKPQALATPNKEEHGKRKKKGKGLGKKRDPCLRKYKDFCIHGECKYVKELRAPSCICHPGYHGERCHGLSL
For the molecule B1, the PEC migration entry in test [2] is “induced PEC migration”.
